Patent US20250241586A1, “Bioavailability and bioequivalence through intrinsic activity and KD measurements, in vivo, in humans” (priority 2024, published 2025)
Where two headings read alike, the source gives them in different places.

Tests used:
[1] = in vitro and cell culture; read-out: KD literature values; cited from earlier work
[2] = biological target: K+ channels of the beta cells of the pancreas (Homo sapiens, UniProt Q09428); conditions: for KD: in vivo in humans, from slope of 1/fractional response vs 1/A plot
Chain of K+ channels of the beta cells of the pancreas (Q09428 whole entry): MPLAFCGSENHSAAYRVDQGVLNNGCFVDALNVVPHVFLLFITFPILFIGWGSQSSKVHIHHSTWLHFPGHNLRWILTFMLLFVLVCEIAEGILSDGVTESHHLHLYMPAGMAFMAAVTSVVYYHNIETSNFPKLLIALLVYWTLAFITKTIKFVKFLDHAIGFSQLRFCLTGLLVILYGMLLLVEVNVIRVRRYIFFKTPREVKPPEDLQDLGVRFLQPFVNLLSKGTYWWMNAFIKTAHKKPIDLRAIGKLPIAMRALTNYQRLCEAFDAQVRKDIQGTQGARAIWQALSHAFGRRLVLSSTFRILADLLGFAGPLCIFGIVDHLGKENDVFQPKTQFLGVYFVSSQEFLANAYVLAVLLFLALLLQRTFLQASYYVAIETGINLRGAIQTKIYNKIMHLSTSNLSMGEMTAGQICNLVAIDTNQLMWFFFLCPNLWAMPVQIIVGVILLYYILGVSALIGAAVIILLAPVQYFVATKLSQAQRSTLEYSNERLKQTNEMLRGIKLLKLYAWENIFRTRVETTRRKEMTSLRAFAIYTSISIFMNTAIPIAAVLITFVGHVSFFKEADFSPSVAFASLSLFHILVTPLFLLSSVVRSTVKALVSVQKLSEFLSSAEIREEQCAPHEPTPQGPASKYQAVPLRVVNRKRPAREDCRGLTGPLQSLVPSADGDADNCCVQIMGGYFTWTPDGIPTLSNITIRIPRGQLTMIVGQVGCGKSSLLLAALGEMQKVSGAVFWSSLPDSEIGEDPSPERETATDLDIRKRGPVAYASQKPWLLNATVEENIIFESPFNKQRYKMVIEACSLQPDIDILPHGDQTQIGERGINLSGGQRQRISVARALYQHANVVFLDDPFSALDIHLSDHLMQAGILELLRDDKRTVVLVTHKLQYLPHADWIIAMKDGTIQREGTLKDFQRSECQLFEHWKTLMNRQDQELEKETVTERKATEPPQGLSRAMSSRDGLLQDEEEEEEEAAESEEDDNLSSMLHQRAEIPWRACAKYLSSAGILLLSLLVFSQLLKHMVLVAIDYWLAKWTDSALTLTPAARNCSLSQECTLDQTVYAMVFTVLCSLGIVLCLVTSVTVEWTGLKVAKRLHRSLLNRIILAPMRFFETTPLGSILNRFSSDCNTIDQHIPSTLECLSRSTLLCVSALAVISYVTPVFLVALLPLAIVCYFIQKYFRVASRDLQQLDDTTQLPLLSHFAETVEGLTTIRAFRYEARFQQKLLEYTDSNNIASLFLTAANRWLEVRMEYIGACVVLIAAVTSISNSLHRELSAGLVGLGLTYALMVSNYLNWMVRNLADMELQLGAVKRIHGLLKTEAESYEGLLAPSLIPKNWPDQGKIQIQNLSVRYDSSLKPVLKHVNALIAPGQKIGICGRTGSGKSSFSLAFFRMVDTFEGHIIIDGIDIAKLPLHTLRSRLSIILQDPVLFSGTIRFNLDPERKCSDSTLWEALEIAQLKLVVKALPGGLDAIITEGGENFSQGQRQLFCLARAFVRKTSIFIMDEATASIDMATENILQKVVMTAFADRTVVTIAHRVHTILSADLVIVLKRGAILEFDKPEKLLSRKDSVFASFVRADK
Chain of K+ channels of the beta cells of the pancreas (Q14654 whole entry partner): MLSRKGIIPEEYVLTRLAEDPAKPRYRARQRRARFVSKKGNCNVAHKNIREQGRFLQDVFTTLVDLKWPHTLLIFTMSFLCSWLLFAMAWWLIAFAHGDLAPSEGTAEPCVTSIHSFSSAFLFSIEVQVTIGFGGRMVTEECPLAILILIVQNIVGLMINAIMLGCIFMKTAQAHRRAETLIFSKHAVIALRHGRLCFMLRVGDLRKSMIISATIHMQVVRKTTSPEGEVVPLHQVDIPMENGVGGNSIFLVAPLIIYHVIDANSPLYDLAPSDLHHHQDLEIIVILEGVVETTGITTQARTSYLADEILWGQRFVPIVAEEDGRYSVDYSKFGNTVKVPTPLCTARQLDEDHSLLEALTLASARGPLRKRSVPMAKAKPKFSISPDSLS

benzodiazepine receptors = test: Sleep time in human male volunteers; in vivo KD from reciprocals plot; conditions: for A Free drug**: free drug quantity crossing the blood brain barrier
Procedure: Drug action is measured by the following parameters all measured in vivo in living animals/humans. • A) Onset time and threshold dose/concentration (minimum dose/concentration to initiate the effect,) these indicate the potency of the drug. • B) Intrinsic Activity or the maximum possible effect, • C) Dissociation constant. Its reciprocal measures the affinity of the drug for the receptor. The above named, parameters have been measured as stated below:
The literature also notes that there could be huge differences in in vivo and in vitro values and in such cases in vivo values are to be taken, if available (1). […] A point in this regard is that many drugs act on multiple receptor systems and in such cases the response is to be chosen such that only one receptor system is involved. […] The assumption is valid since the amount of bound drug is negligible compared to the total amount of drug at receptor and may be neglected. […] Alprazolam was administered to human male volunteers with sound health, of average weight and having normal creatinine clearance in the doses of 4 mcg/kg, 6 mcg/kg and 8 mcg/kg, and onset and sleep times noted. • The amount of free drug crossing the blood brain barrier was obtained.

## Cc1cnc(C(=O)NCCc2ccc(S(=O)(=O)NC(=O)NC3CCCCC3)cc2)cn1 [Glipizide, glipizide]
[1]
  Kd: ~10 nM
[2]
  KD: KD = 8.98 nM
[2]; listed as glipizide
  KD: 8.98 nM

## Cc1nnc2n1-c1ccc(Cl)cc1C(c1ccccc1)=NC2 [Alprazolam, alprazolam]
Benzodiazepine receptors; alprazolam dose 4 Mcg/kg
  1/A: 225.8
  1/Fractional response: 3.8
  Response sleep time: 63 min
  A Free drug**: 0.0044 Mcg/ml
Benzodiazepine receptors; alprazolam dose 6 Mcg/kg
  1/A: 151.4
  1/Fractional response: 2.4
  Response sleep time: 100 min
  A Free drug**: 0.0066 Mcg/ml
Benzodiazepine receptors; alprazolam dose 8 Mcg/kg
  1/A: 49.8
  1/Fractional response: 1.0
  Response sleep time: 241 min
  A Free drug**: 0.0088 Mcg/ml
Benzodiazepine receptors; humans
  Threshold dose: 4 mcg/kg bodyweight
Benzodiazepine receptors; in vivo in humans, response sleep time, free drug crossing the blood brain barrier, slope of reciprocals plot
  Kd: 50.8 nM

## CCC1=C(C)CN(C(=O)NCCc2ccc(S(=O)(=O)NC(=O)N[C@H]3CC[C@H](C)CC3)cc2)C1=O [Glimepride, glimepride]
[2]; glimepride dose 5 Mcg/kg
  1/Fractional response: 17.24
  Response AUC reduction: 30 mg·h/dL
[2]; glimepride dose 10 Mcg/kg
  1/Fractional response: 4.48
  Response AUC reduction: 115 mg·h/dL
[2]; glimepride dose 20 Mcg/kg
  1/Fractional response: 1.0
  Response AUC reduction: 514 mg·h/dL
[2]
  KD: KD = 2.018 nM
[2]; listed as glimepride
  KD: 2.0 nM
[2]; point of inflection of log dose response curve, humans
  Threshold dose: 5 mcg/kg body weight
